Columns and labels:
Wistar rats = test: elevated plus maze, age-dependent behavioral defects; type: in vivo, rat; details: 14-month-old rats
Excerpt: Rats of 3 months and 14 months old were investigated. An elevated plus maze with two open and two closed arms was used. Young animals placed in the maze center entered both types of arms with equal probability (FIGS. 2A and 2C). However, the 14-month-old rats preferred to enter the closed arms only (FIG. 2D), the probability of entering the open arms being extremely low. If, nevertheless, a 14-month-old rat entered an open arm, the animal immediately left this arm (FIG. 2B). […] This difference was also abolished by SkQ1 (Stefanova, et al., J. Alzheimer's Dis. 21:479-491 (2010)).

[1] = tested on: hippocampal slice neurons; test: long-term potentiation (LTP) of hippocampal slices treated with Aβ after in vivo treatment; parameters: species or system rat
Protocol: FIG. 3B is a graphic representation showing the LTP caused by in vitro addition of Aβ, where the decay of LTP of hippocampal slice neurons characterized by a decrease of pop-spike amplitude (%) in a hippocampal slice treated with Aβ.
SkQR1 Aβ was added 15 min before the LTP induction with high-frequency electric stimulation (arrow). The decay of LTP (i.e. decrease of pop-spike amplitude) in a hippocampal slice treated with Aβ can be prevented by SkQR1 treatment.
FIG. 16 is a bar graph comparing the neuroprotective effects of preferred SkQ mitochondria-targeted antioxidants of the invention when administered in vivo in a model of Alzheimer disease.
As a model of cell memory, an electric response of a hippocampal slice (long-term potentiation, LTP) was used (Malenka, et al., Science 285:1870-1874 (1999)). A direct experiment was performed showing the prevention of Aβ toxicity in hippocampus by in vivo treatment of rats with 1 μmol SkQR1 per kg of body weight. The compound was injected intraperitoneally into the animal 24 hours before hippocampal slices were obtained to measure LTP. Some slices were pretreated with Aβ for 15 minutes. As is seen in FIG. 3B, Aβ impaired LTP relative to untreated control.
FIG. 16 provides a comparison of the neuroprotective effects of SkQ1, SkQR1 and C12TPP based on the LTP signal in neurons of hippocampal slices. Ab stands for beta-amyloid treatment. […] All SkQs and C12TPP were administered in vivo to rats prior the extraction of hippocampus.

[2] = tested on: chronically alcoholised rats; test: open field test of chronically alcoholised rats; type: in vivo, rat; details: vs Negative Control
Protocol: FIG. 9 is a graphic representation showing behavior parameters in the open field test of chronically alcoholised rats in % to intact control. (*−p<0.05; **—p<0.005 to negative control; #—p<0.05, ##—p<0.01, to intact control);
(§1) Male albino rats had free access to a 15% ethanol solution, as well as to food and water. After 6 months of alcoholisation, animals with average consumption more than 11 ml of 15% ethanol solution were divided into two even groups and subjected to the following treatment. The Negative Control group (n=16) (chronically alcoholised rats) were orally administered 1 ml per kg of isotonic 0.9% NaCl solution every two days for 20 days during alcohol deprivation. The SkQ1 group (n=17) (chronically alcoholised rats) were orally administered 1 ml per kg of SkQ1 250 nM solution every two days for 20 days during alcohol deprivation. The Intact Control group (n=10) (animals had no previous contact with ethanol) were orally administered 1 ml per kg of normal physiological solution every two days for 20 days.
(§2) After this course of drug administration, the effect on behavioral parameters was observed using the open field test, the elevated plus maze test, and the Porsolt forced swimming test.
In the open field test, treated animals had increased number of rearing ((p<0.05), number of entrance in central zone (p<0.01), movement time in central zone (p<0.05)) compared to the Negative Control group (FIG. 9. Therefore, SkQ1 increases exploratory activity during alcohol deprivation.

[3] = tested on: chronically alcoholised rats; test: elevated plus maze test of chronically alcoholised rats; type: in vivo, rat; details: SkQ1 250 nM solution orally every two days for 20 days, vs Negative Control
Protocol: FIG. 10 is a graphic representation showing behavior parameters in the elevated plus-maze test of chronically alcoholised rats in % to intact control. (*−p<0.05; ** −p<0.005 to negative control; #—p<0.05, ##—p<0.01, to intact control);
as §1, §2

[4] = tested on: chronically alcoholised rats; test: Porsolt forced swimming test of chronically alcoholised rats; type: in vivo, rat; details: SkQ1 250 nM solution orally every two days for 20 days; p<0.05
Protocol: FIG. 11 is a graphic representation showing behavior parameters in the Porsolt forced swimming test of chronically alcoholised rats in % to intact control. (*−p<0.05 SKQ-1 to negative control); and
as §1, §2

[5] = tested on: chronically alcoholised rats; test: consumption of 15% ethanol solution after deprivation; body weight; type: in vivo, rat
Protocol: FIG. 12 is a graphic representation showing the consumption of 15% ethanol solution after deprivation in ml (*−p<0.01 on 1st day of alcoholisation SKQ-1 to negative control; #—p<0,05 for average ethanol consumption for 1-36 days SKQ-1 to negative control).
as §1
After behavioral testing, ethanol consumption of 15% solution was measured for 45 days. The level of ethanol consumption during first day in the SkQ1 group was lower (p<0.01) than in the Negative Control group. The decreased ethanol consumption during first day indicates lower level of ethanol craving after SkQ1 administration. […]

[6] = 250 nmol/kg daily in food for 10 weeks

SMILES: CC1=C(C)C(=O)C(CCCCCCCCCC[P+](c2ccccc2)(c2ccccc2)c2ccccc2)=CC1=O [SkQ1, plastoquinonyl decyltriphenyl-phosphonium]
- age effect in elevated plus maze (Wistar rats; 250 nmol/kg body weight daily in food for 10 weeks): completely reversed
- probability of entering an open arm (Wistar rats; [6]): as high as for young rats
- time spent in open arm (Wistar rats; [6]): almost as long as for the young rodents
- neuroprotective activity based on LTP signal, model of Alzheimer disease ([1]; administered in vivo to rats prior to extraction of hippocampus, beta-amyloid treatment, FIG. 16): neuroprotective activity
- impairment (decay) of LTP caused by Aβ ([1]; in vivo treatment (SkQR1 1 μmol/kg i.p. 24 hours before slices), Aβ added to slices for 15 min): prevents decay
- number of rearing ([2]; 1 ml per kg SkQ1 250 nM solution orally every two days for 20 days during alcohol deprivation, p<0.05): increased
- number of entrance in central zone ([2]; SkQ1 250 nM solution orally every two days for 20 days, p<0.01): increased
- movement time in central zone ([2]; SkQ1 250 nM solution orally every two days for 20 days, p<0.05): increased
- number of looking out from closed arms [3]: increased
- rearing ([3]; p<0.005): increased
- movement time in central zone ([3]; p<0.05): increased
- track length in closed arms ([3]; p<0.05): increased
- immobilization time [4]: less
- average ethanol consumption during the next month, lower than Negative Control ([5]; p<0.05): ~2 ×
- level of ethanol consumption during first day ([5]; vs Negative Control, p<0.01): lower

From patent US20140329776A1, “Mitochondria-Targeted Antioxidants for Treatment of Age-Related Brain Disorders” (MITOTECH S.A., priority 2011, published 2014)
